The values below come from BindingDB's records for doi:10.7270/Q2T72HDT (Dupont Pharmaceuticals, 1995).

Molecules are shown by their SMILES. pIC50: −log10 of the molar value.

In test [1] the target is T1, Sterol O-acyltransferase 1 (Rattus norvegicus, UniProt O70536).
T1 sequence (O70536 whole entry): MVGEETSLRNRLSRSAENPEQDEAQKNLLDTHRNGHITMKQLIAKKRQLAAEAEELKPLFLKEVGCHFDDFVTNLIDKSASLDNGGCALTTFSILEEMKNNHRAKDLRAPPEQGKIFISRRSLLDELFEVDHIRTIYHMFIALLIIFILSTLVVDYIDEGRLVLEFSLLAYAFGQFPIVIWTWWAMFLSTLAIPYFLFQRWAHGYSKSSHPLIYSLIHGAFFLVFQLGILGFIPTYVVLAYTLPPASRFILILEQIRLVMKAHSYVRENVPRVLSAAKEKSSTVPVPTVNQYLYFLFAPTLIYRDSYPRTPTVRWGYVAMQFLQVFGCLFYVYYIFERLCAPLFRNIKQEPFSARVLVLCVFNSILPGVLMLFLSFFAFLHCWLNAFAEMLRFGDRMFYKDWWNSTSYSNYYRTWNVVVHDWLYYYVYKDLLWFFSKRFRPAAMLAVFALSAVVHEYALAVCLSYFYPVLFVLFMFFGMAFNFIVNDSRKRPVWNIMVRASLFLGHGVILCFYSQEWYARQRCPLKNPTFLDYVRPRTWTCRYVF
The test can be described thus: ChEBML_28360. An excerpt: In vitro inhibition of Acyl coenzyme A:cholesterol acyltransferase (ACAT) in rat hepatic microsomes

Test [2] has as its target T2, Sterol O-acyltransferase 1 (Mus musculus, UniProt Q61263).
T2 sequence (Q61263 whole entry): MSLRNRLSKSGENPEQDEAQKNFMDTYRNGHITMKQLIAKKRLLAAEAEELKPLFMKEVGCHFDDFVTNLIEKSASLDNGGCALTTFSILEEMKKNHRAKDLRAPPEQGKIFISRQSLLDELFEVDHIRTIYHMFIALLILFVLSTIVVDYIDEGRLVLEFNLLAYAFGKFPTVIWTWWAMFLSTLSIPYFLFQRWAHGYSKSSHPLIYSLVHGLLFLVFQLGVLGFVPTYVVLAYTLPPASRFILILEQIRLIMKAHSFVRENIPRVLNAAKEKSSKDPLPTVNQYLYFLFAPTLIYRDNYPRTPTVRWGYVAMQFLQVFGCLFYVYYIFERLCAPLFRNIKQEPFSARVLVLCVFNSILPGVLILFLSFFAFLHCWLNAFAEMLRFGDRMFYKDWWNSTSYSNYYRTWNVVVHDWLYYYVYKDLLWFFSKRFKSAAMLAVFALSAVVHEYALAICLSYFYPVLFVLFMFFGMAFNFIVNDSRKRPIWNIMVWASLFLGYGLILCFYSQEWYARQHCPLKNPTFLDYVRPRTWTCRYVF
Kind of test: ChEBML_28026. An excerpt: Inhibition of Acyl coenzyme A:cholesterol acyltransferase (ACAT) in J774 Macrophage cell culture

With `COc1ccc(-c2nc(SCCCCCN(CCCCCSc3nc(-c4ccccc4)c(-c4ccccc4)[nH]3)C(=O)NC(C)C)[nH]c2-c2ccc(OC)cc2)cc1`, the pIC50 is 7.05 in test [1] and 7.00 in test [2].
For `COc1ccc(-c2nc(SCCCCCN(CCCCCSc3nc(-c4ccc(OC)cc4)c(-c4ccc(OC)cc4)[nH]3)C(=O)NC(C)C)[nH]c2-c2ccc(OC)cc2)cc1` the same measures were 7.05 and 8.00.
`CN(C)c1ccc(-c2nc(SCCCCCN(CCCCCSc3nc(-c4ccccc4)c(-c4ccccc4)[nH]3)C(=O)Nc3ccc(F)cc3F)[nH]c2-c2ccc(N(C)C)cc2)cc1`: the negative-log IC50 (pIC50) is 8.52 in test [1] and 6.35 in test [2].
With `CN(C)c1ccc(-c2nc(SCCOCCSc3nc(-c4ccc(N(C)C)cc4)c(-c4ccc(N(C)C)cc4)[nH]3)[nH]c2-c2ccc(N(C)C)cc2)cc1`, the pIC50 in test [1] is 6.87; in test [2], 6.43.
As for `c1ccc(-c2nc(SCCCSCCCSc3nc(-c4ccccc4)c(-c4ccccc4)[nH]3)[nH]c2-c2ccccc2)cc1`, in test [2], the pIC50 was 5.10.
Turning to `O=C(Nc1ccc(F)cc1F)N(CCCCCSc1nc(-c2ccccc2)c(-c2ccccc2)[nH]1)CCc1ccccn1`, the pIC50 in test [1] was 7.10; in test [2], 5.61.
Regarding `COc1ccc(-c2nc(SCCOCCSc3nc(-c4ccccc4)c(-c4ccccc4)[nH]3)[nH]c2-c2ccc(OC)cc2)cc1`, the negative-log IC50 (pIC50) in test [2] is 5.41.
Turning to `c1ccc(-c2nc(SCCOCCSc3nc(-c4ccccc4)c(-c4ccccc4)[nH]3)[nH]c2-c2ccccc2)cc1`, the pIC50 in test [1] was 7.59; in test [2] it was 5.18.
Regarding `CC(C)NC(=O)N(CCCCCSc1nc(-c2ccccc2)c(-c2ccccc2)[nH]1)CCc1ccccn1`, the negative-log IC50 (pIC50) was 6.72 in test [1] and 5.52 in test [2].
For `Cc1nc2ccccc2n1CCCSCCCSc1nc(-c2ccccc2)c(-c2ccccc2)[nH]1`, the pIC50 in test [1] is 6.60; in test [2], 5.14.
For `c1ccc(-c2nc(SCCCCCOCCc3ccccn3)[nH]c2-c2ccccc2)cc1`, in test [2], the pIC50 is 5.41.
Consider `COc1ccc(-c2nc(SCCCCCN(CCc3nn[nH]n3)C(=O)NC(C)C)[nH]c2-c2ccc(OC)cc2)cc1`, for which the pIC50 in test [2] was 5.26.
Regarding `CC(C)NC(=O)N(CCCCCSc1nc(-c2ccccc2)c(-c2ccccc2)[nH]1)CCCCCSc1nc(-c2ccc(N(C)C)cc2)c(-c2ccc(N(C)C)cc2)[nH]1`, the values for the negative-log IC50 (pIC50) in test [1] and in test [2] were 7.52 and 7.22, respectively.
As for `COc1ccc(-c2nc(SCCCCCN(CCCn3ccnc3)C(=O)NC(C)C)[nH]c2-c2ccc(OC)cc2)cc1`, in test [2], the negative logarithm of the IC50 (pIC50) is 5.26.
As to `c1ccc(-c2nc(SCCCCCSCc3ccccn3)[nH]c2-c2ccccc2)cc1`, the pIC50 in test [1] is 6.51; in test [2], 5.41.
Turning to `CN(C)c1ccc(-c2nc(SCCOCCSc3[nH]cnc4ncnc3-4)[nH]c2-c2ccc(N(C)C)cc2)cc1`, the figures for the pIC50 in test [1] and in test [2] were 5.69 and 5.52, respectively.
For `COc1ccc(-c2nc(SCCCCCN(Cc3ccccn3)C(=O)NC(C)C)[nH]c2-c2ccc(OC)cc2)cc1` the same measures were 5.21 and 7.22.
For `O=C(Nc1ccc(F)cc1F)N(CCCCCSc1nc(-c2ccccc2)c(-c2ccccc2)[nH]1)c1ccccn1` the same measures were 6.18 and 6.10.
In test [2], `COc1ccc(-c2nc(SCCOCCn3c(C)nc4ccccc43)[nH]c2-c2ccc(OC)cc2)cc1` had a pIC50 of 5.46.
As to `COc1ccc(-c2nc(SCCCCCN(Cc3ccccn3)C(=O)Nc3ccc(F)cc3F)[nH]c2-c2ccc(OC)cc2)cc1`, in test [2], the negative-log IC50 (pIC50) is 6.72.
As for `CC(C)NC(=O)N(CCCCCSc1nc(-c2ccccc2)c(-c2ccccc2)[nH]1)c1ccccn1`, the negative logarithm of the IC50 (pIC50) in test [1] is 7.00; in test [2], 6.03.
For `COc1ccc(-c2nc(SCCCCCN(CCc3ccccn3)C(=O)NC(C)C)[nH]c2-c2ccc(OC)cc2)cc1` the same measures were 6.59 and 7.05.
Take `COc1ccc(-c2nc(SCCCCCN(CCc3ccccn3)C(=O)Nc3ccc(F)cc3F)[nH]c2-c2ccc(OC)cc2)cc1`: the figures for the pIC50 in test [1] and in test [2] were 6.52 and 6.16, respectively.
